We go through four compounds from PMC7047428 (ACS Central Science, 2020).

By EC50 is commonly meant the concentration giving half of the maximal effect.

Assay [1] has as its target T1, D2R WT (Homo sapiens, UniProt P14416). Put plainly: Split luciferase GloSensor cAMP assay, activation of Gi protein. The conditions noted are these: for G protein EC50: wild type D2R, HEK 293T, cAMP GloSensor. The class given is cell-based.
The target of assay [2] is T1, D2R WT. Put plainly: Tango arrestin recruitment assay. It is filed as cell-based. The conditions noted are these: wild type D2R, HTLA cells.

T1 sequence (P14416 whole entry): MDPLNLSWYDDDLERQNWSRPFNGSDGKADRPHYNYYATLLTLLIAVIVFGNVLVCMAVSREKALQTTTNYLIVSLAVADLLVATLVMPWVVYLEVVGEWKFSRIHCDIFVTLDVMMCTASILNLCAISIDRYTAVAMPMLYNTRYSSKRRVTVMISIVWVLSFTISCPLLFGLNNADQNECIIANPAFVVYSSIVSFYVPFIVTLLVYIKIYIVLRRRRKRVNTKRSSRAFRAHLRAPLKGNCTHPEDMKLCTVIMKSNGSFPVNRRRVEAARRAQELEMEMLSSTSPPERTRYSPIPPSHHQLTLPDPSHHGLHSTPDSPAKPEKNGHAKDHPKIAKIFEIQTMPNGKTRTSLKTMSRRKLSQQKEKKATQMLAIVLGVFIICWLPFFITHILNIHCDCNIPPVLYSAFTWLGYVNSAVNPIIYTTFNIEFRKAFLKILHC

Consider `Oc1c(CN2CCN(c3ccccn3)CC2)cc(F)c2cccnc12` [MLS-d1, 5-Fluoro-7-((4-(pyridin-2-yl)piperazin-1-yl)methyl)quinolin-8-ol], for which the EC50 on D2R WT [1] stood at 18.6 nM. `Oc1c(CN2CCN(c3ccccn3)CC2)ccc2cccnc12` [MLS-d2, 7-((4-(Pyridin-2-yl)piperazin-1-yl)methyl)quinolin-8-ol] gave an EC50 at D2R WT [1] of 95 nM. Turning to `Oc1c(CN2CCN(c3ccccn3)CC2)cc(Br)c2cccnc12` [MLS-d3, 5-Bromo-7-((4-(pyridin-2-yl)piperazin-1-yl)methyl)quinolin-8-ol], the “G protein EC50” value on D2R WT [1] is “completely inactive”. The “β-arrestin EC50” value at D2R WT [2] is “completely inactive”. Take `O=[N+]([O-])c1cc(CN2CCN(c3ccccn3)CC2)c(O)c2ncccc12` [MLS-d4, 5-Nitro-7-((4-(pyridin-2-yl)piperazin-1-yl)methyl)quinolin-8-ol]: the “G protein EC50” value on D2R WT [1] is listed as “did not show activation”. Besides, the “β-arrestin EC50” value at D2R WT [2] is listed as “did not show activation”.
